Data on 1 compound can be found in article PMC10144566, “Pharmacokinetic Profile Evaluation of Novel Combretastatin Derivative, LASSBio-1920, as a Promising Colorectal Anticancer Agent” (Pharmaceutics, 2023).

Data set [1] concerns SF-295, glioblastoma. Briefly: MTT cytotoxicity assay, SF-295. The following applies: Homo sapiens, SF-295, 72 h, read-out: IC50 (95% CI) SF-295. A general note: Tetrazolium dyes change colour on reduction, which living cells bring about.
Experimental: (§3) The cytotoxicity of the compounds was determined using the MTT assay [13]. Cells were seeded in 96-well plates as follows: 0.7 × 10^5 cells/well for adherent cancer cells, 0.3 × 10^5 cells/well for suspended cancer cells, and 0.2 × 10^5 cells/well for HPBMCs. […] The control group was treated with the vehicle. […] After incubation, the supernatant was decanted and replaced with fresh medium containing MTT (0.5 mg/mL).
(§4) Data were presented as mean ± standard error of the mean (SEM) from three independent experiments performed in triplicate, calculated using Prism 8.0 (GraphPad/Intuitive Software for Science, San Diego, CA, USA). The IC50 of the compounds was obtained using a non-linear regression of the cytotoxicity curves.
Data set [2] has as its system HCT-116 human colorectal cancer cells (colon carcinoma). Briefly: MTT cytotoxicity assay, HCT-116. The following applies: for IC50: Homo sapiens.
Experimental: as §3, §4
Data set [3] relates to PC-9 cells. Briefly: Annexin V/7-AAD apoptosis assay by flow cytometry, PC-9. Type of data set: cell-based, human. The following applies: 0.75 µM, 48 h, negative control 2.40 ± 0.17%. The protocol:
(§1) The control group received the same amount of vehicle, of which the concentration was kept constant (below 0.5%). Cell treatments were completed in triplicate. CA4 (0.2 or 0.5 µM) was used as the positive control. Stock solutions of the compounds tested were dissolved in DMSO and diluted in the culture medium to obtain the desired concentrations.
(§2) Apoptosis assay: Apoptosis was analyzed using Annexin V/7-AAD staining followed by flow cytometry. Cells were collected and stained using an Annexin V-PE/7-AAD apoptosis detection kit. Annexin V binds to phosphatidylserine (PS) in apoptosis cells as PS translocates from the inner to the outer leaflet of the cytoplasmic membrane. 7-AAD is a fluorescent intercalator of DNA impermeable to the cell, providing a reliable indication of membrane integrity. Double staining distinguishes between viable, early apoptotic, necrotic, and late apoptotic cells. The resulting fluorescence of annexin V-PE at 583 nm and 7-AAD at 680 nm of every sample was analyzed by flow cytometry. The 7-AAD-positive and annexin V-negative cells were considered necrotic. Annexin V-positive cells (7-AAD-positive and 7-AAD-negative cells) were classified as apoptotic. 7-AAD-negative and annexin V-negative cells were deemed viable.
(In flow cytometry, cells or beads pass a laser one at a time.)

Data set [4] concerns PC-3, prostate adenocarcinoma. Briefly: MTT cytotoxicity assay, PC-3. The following applies: Homo sapiens, 72 h, read-out: IC50 (95% CI) PC-3.
Experimental: as §3, §4
For data set [5], the system named is N-87, gastric carcinoma. Briefly: MTT cytotoxicity assay, N-87. Particulars: Homo sapiens, 72 h, read-out: IC50 (95% CI) N-87.
Experimental: as §3, §4
Data set [6] can be described thus: Microsomal (metabolic) stability. It is filed as in vitro ADME. Particulars: Wistar rat liver microsomes, with or without NADPH-generating system, 100 µM, up to 120 min. The protocol: Livers were obtained from male Wistar rats (250 and 300 g) from the Federal University of Ceara (UFC, Fortaleza, Brazil). The livers were maintained in an ice bath and washed with 3 volumes of 0.05 M Tris-HCl and 0.25 M sucrose, pH 7.4. They were then sliced and homogenized in a Potter–Elvehjem glass-Teflon homogenizer. The homogenates were centrifuged for 30 min at 900× g at 4 °C, and the supernatant fraction was centrifuged at 10,000× g for 1 h at 4 °C. The pellet was discarded, and the supernatant fraction was centrifuged at 100,000× g for 1 h at 4 °C. The microsomal fraction in the resulting pellet was recovered. The pellet was washed and resuspended twice in 0.05 M Tris-HCl, condensed into a pellet again by centrifugation for 1 h at 100,000× g at 4 °C and, finally, resuspended in the Tris-HCl buffer. Metabolic assays were carried out with frozen microsomes in Tris–HCl buffer, stored at –80 °C. […]
The final concentration of DMSO in the incubation mixture was 0.5%. […] The supernatant was analyzed by HPLC (acetonitrile/water 7:3 with 0.1% trifluoroacetic acid) using an internal standard (4-acetylbiphenyl—final concentration of 20 µM). […]
In general terms: Liver microsomes are vesicles of endoplasmic reticulum, rich in cytochrome P450 enzymes.

Data set [7] deals with T1, EGFR-wt (Homo sapiens, UniProt P00533).
T1 construct: Eurofins
T1 sequence (P00533 25-1210): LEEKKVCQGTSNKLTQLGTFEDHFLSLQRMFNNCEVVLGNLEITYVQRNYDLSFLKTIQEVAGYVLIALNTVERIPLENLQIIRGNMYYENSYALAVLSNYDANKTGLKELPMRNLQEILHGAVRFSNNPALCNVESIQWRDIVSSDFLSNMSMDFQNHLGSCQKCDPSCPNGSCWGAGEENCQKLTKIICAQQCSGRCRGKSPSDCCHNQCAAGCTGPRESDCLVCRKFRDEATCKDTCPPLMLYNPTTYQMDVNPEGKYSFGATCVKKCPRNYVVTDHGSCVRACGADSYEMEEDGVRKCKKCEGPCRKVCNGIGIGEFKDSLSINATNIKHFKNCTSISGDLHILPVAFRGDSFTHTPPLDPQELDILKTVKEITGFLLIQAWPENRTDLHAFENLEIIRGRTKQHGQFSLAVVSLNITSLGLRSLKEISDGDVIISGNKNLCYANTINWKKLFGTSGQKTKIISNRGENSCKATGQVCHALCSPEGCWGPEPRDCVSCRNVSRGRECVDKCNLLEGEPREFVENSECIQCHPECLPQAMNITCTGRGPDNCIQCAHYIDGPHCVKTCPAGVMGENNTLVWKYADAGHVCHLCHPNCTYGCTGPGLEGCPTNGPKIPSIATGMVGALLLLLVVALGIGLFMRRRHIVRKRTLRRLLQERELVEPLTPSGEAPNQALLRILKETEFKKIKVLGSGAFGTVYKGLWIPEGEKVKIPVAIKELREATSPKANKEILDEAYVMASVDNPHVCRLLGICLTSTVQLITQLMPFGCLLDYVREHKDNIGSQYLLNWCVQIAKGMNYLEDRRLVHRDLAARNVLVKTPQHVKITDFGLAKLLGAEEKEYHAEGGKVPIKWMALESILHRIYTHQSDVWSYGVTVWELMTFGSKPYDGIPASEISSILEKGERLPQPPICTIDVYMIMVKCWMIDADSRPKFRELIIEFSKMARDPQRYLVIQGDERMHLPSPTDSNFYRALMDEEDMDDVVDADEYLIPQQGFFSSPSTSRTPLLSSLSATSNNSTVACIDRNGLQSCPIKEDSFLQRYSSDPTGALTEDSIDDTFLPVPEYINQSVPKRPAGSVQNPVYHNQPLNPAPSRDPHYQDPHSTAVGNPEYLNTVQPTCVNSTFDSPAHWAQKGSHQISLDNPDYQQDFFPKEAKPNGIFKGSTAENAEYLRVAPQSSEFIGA
Briefly: Inhibition of EGFR, LANCE TR-FRET assay. Particulars: 1 and 10 µM (either concentration); data not shown. Type of data set: biochemical. As to the method: Inhibition of EGFR assay: The inhibition of EGFR activity was determined using the LANCE®TR-FRET (time-resolved fluorescence energy transfer) test according to the protocol described by Weber et al. (1984). The reference compound (PD153035) was tested simultaneously with LASSBio-1920 (1 and 10 µM). The LASSBio-1920 concentrations were determined based on IC50 values and the compound’s aqueous solubility. The experiment was carried out in agreement with Eurofins®’s Standard Operating Procedure.

Data set [8] concerns the target human CK-1δ protein kinase (Homo sapiens, UniProt P48730). Briefly: Inhibition of human CK-1δ protein kinase (Kinase-Glo). It is filed as biochemical. The following applies: data not shown, read-out: inhibitory activity against human CK-1δ protein kinase. As to the method:
Inhibition of human CK-1δ protein kinase assay: Test compound (10 µL), CK-1δ enzyme (10 µL), and buffer solution (20 µL) were added to each well of a 96-well plate containing 0.1% casein as substrate and 4 µM ATP. The assay buffer solution constituents were 50 mM HEPES at pH 7.5, 0.01% Brij-35, […], 1 mM EDTA, and 0.01% NaN3. The final concentrations of DMSO were limited to 1%. After 60 min of incubation at 30 °C, the reaction was stopped by the addition of 40 µL of Kinase-Glo®. The luminescence was measured after 10 min using a Fluostar Optima multimode reader (BMG Labtechnologies GmbH, Offenburg, Germany). First, LASSBio-1920 was tested at concentrations of 10 µM, and 5 µM of SB415826, a potent CK-1δ enzyme inhibitor, was employed as a positive control.

Data set [9] can be described thus: Chemical stability in buffer (HPLC). It is filed as physicochemical. Particulars: 0–240 min.
In data set [10] the test system is HCT-116 cells. Briefly: Annexin V/7-AAD apoptosis assay by flow cytometry, HCT-116. Type of data set: cell-based, human. The following applies: 6 µM, 48 h, negative control 5.14 ± 0.61%. As to the method: as §1, §2

Entries after “also recorded” stand apart in the source; their conditions may differ. Like-named read-outs stand apart in the source and are kept apart here.

Sequence of human CK-1δ protein kinase (P48730 whole entry): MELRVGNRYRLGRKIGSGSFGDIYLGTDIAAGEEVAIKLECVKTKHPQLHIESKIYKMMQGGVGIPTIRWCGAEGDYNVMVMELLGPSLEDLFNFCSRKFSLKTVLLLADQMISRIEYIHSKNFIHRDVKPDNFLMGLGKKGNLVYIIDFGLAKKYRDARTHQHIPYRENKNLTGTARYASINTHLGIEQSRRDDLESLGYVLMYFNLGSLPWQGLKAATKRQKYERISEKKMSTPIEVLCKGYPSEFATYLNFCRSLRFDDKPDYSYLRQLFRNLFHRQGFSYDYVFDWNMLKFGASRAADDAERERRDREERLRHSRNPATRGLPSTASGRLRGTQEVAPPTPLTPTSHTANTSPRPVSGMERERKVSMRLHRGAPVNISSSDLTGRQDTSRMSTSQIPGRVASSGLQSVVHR

Consider `COc1cc(C(=O)N/N=C/c2cc3ccccc3s2)cc(OC)c1OC` [LASSBio-1920, (E)-N′-(Benzo[b]thiophen-2-ylmethylene)-3,4,5-trimethoxybenzohydrazide], for which the 50% inhibitory concentration (IC50) (as a rule, the concentration needed to halve the response being measured) in data set [1] is 110 nM; in data set [2] (HCT-116, 24 h, read-out: IC50 (95% CI) HCT-116 24 h), > 100000 nM; in [2] (HCT-116, 48 h, read-out: IC50 (95% CI) HCT-116 48 h) it was 2700 nM; in data set [2] (HCT-116, 72 h, read-out: IC50 (95% CI) HCT-116) it was 60 nM; in data set [2] (HCT-116, 72 h, read-out: IC50 (95% CI) HCT-116 72 h), 60 nM; in data set [4], 1680 nM. In [5], the 50% inhibitory concentration (IC50) was 440 nM. Also, the “SI HPBMC/HCT-116” value in data set [2] (IC50 for HPBMC/IC50 for the tumor cell line, 72 h) was 2.3. In addition, the “apoptotic events PC-9 cells” value in data set [3] is 15.49 ± 1.28%. Moreover, in data set [6], the “metabolic stability in liver microsomal fraction” value was “significantly metabolized by the microsomal fraction only in the presence of an NADPH-generating system”. Further, the “enzymatic inhibition of EGFR-wt” value in data set [7] is on record as “less than 20%”. For the same compound, the inhibition at 10 µM in data set [8] was < 10%. In [9] (HCl buffer pH 2, 37 °C), the “chemical stability at pH 2” value is recorded as “unstable at pH 2; also recorded: unstable in an acid medium (HCl buffer, pH 2)”. The “chemical stability at pH 7.4” value in [9] (phosphate buffer pH 7.4, 37 °C) is listed as “stable at pH 7.4 at all time points; also recorded: stable in a practically neutral medium (phosphate buffer, pH 7.4)”. Besides, in data set [10], the “apoptotic HCT-116 cells” value worked out at 12.62 ± 2.26%.
